The values below come from patent US20200331925A1, “HETEROCYCLIC COMPOUNDS FOR THE TREATMENT OF ABNORMAL CELLULAR PROLIFERATION” (G1 Therapeutics, Inc., priority 2018, published 2020).

What all share (format): biochemical
One test concerns the target CDK1/Cyclin B1 (Homo sapiens, UniProt P06493). The test can be described thus: CDK1/Cyclin B1 kinase assay (Nanosyn, Caliper microfluidic). The conditions noted are these: 12-point dose-response, ATP at Km (40 μM), 3 hr. The procedure: (§1) Selected compounds disclosed herein were tested in kinase assays by Nanosyn (Santa Clara, Calif.) to determine their inhibitory effect on selected CDKs. The assays were performed using microfluidic kinase detection technology (Caliper Assay Platform). The compounds were tested in 12-point dose-response format in singlicate at Kmfor ATP. Phosphoacceptor substrate peptide concentration used was 1 μM for all assays and Staurosporine was used as the reference compound for all assays. Specifics of each assay are as described below: CDK1/Cyclin B1: Enzyme concentration: 0.08 nM; ATP concentration: 40 μM; Incubation time: 3 hr.

The next test addresses CDK5/p35 (Homo sapiens, UniProt Q00535). The test is described as follows: CDK5/p35 kinase assay (Nanosyn, Caliper microfluidic). The conditions noted are these: 12-point dose-response, ATP at Km (20 μM), 3 hr. The procedure:
as §1, with “CDK5/p35:” for “CDK1/Cyclin B1:”, “0.05” for “0.08”, “20” for “40”

For another test, the target named is CDK7/Cyclin H (Homo sapiens, UniProt P50613). The test can be described thus: CDK7/Cyclin H kinase assay (Nanosyn, Caliper microfluidic). The conditions noted are these: 12-point dose-response, ATP at Km (50 μM), 17 hr. On the procedure: as §1, with “CDK7/Cyclin H:” for “CDK1/Cyclin B1:”, “10” for “0.08”, “50” for “40”, “17” for “3”
The target in a further test is CDK2/Cyclin E (Homo sapiens, UniProt P24941). The test is described as follows: CDK2/Cyclin E kinase assay (Nanosyn, Caliper microfluidic). As to conditions: 12-point dose-response, ATP at Km (100 μM), 3 hr. The procedure: as §1, with “CDK2/Cyclin E:” for “CDK1/Cyclin B1:”, “0.15” for “0.08”, “100” for “40”
The target in a further test is CDK9/Cyclin T (Homo sapiens, UniProt P50750). The test is described as follows: CDK9/Cyclin T kinase assay (Nanosyn, Caliper microfluidic). As to conditions: 12-point dose-response, ATP at Km (10 μM), 17 hr; Table 5. The procedure:
as §1, with “[…]:” for “CDK1/Cyclin B1:”, “5” for “0.08”, “10” for “40”, “17” for “3”

For a further test, the target named is CDK5/p25 (Homo sapiens, UniProt Q00535). The test is described as follows: CDK5/p25 kinase assay (Nanosyn, Caliper microfluidic). The conditions noted are these: 12-point dose-response, ATP at Km (20 μM), 3 hr. On the procedure: as §1, with “CDK5/p25:” for “CDK1/Cyclin B1:”, “0.1” for “0.08”, “20” for “40”
In a further test the target is CDK6/Cyclin D3 (Homo sapiens, UniProt Q00534). The test can be described thus: CDK6/Cyclin D3 kinase assay (Nanosyn, Caliper microfluidic). As to conditions: 12-point dose-response, ATP at Km (300 μM), 3 hr. The procedure:
as §1, with “CDK6/Cyclin D3:” for “CDK1/Cyclin B1:”, “2” for “0.08”, “300” for “40”

Another test addresses CDK4/Cyclin D1 (Homo sapiens, UniProt P11802). The test can be described thus: CDK4/Cyclin D1 kinase assay (Nanosyn, Caliper microfluidic). As to conditions: 12-point dose-response, ATP at Km (200 μM), 3 hr; Table 4. On the procedure: as §1, with “CDK4/Cyclin D1:” for “CDK1/Cyclin B1:”, “1” for “0.08”, “200” for “40”
A further test deals with CDK2/Cyclin A (Homo sapiens, UniProt P24941). The test is described as follows: CDK2/Cyclin A kinase assay (Nanosyn, Caliper microfluidic). The conditions noted are these: 12-point dose-response, ATP at Km (50 μM), 3 hr. The procedure:
as §1, with “CDK2/Cyclin A:” for “CDK1/Cyclin B1:”, “0.1” for “0.08”, “50” for “40”

For a further test, the target named is CDK3/Cyclin E (Homo sapiens, UniProt Q00526). The test is described as follows: CDK3/Cyclin E kinase assay (Nanosyn, Caliper microfluidic). The conditions noted are these: 12-point dose-response, ATP at Km (400 μM), 3 hr. On the procedure:
as §1, with “CDK3/Cyclin E:” for “CDK1/Cyclin B1:”, “1” for “0.08”, “400” for “40”

Chain of CDK9/Cyclin T (P50750 whole entry): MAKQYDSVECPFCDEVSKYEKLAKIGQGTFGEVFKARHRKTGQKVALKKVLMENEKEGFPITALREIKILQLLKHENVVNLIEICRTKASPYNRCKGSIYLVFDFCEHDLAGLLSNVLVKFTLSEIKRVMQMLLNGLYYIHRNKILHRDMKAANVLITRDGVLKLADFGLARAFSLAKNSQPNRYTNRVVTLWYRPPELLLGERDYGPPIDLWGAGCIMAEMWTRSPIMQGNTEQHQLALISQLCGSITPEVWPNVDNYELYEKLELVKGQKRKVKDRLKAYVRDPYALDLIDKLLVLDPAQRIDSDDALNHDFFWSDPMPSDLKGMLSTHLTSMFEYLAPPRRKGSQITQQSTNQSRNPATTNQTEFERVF
Chain of CDK9/Cyclin T (O60563 whole entry partner): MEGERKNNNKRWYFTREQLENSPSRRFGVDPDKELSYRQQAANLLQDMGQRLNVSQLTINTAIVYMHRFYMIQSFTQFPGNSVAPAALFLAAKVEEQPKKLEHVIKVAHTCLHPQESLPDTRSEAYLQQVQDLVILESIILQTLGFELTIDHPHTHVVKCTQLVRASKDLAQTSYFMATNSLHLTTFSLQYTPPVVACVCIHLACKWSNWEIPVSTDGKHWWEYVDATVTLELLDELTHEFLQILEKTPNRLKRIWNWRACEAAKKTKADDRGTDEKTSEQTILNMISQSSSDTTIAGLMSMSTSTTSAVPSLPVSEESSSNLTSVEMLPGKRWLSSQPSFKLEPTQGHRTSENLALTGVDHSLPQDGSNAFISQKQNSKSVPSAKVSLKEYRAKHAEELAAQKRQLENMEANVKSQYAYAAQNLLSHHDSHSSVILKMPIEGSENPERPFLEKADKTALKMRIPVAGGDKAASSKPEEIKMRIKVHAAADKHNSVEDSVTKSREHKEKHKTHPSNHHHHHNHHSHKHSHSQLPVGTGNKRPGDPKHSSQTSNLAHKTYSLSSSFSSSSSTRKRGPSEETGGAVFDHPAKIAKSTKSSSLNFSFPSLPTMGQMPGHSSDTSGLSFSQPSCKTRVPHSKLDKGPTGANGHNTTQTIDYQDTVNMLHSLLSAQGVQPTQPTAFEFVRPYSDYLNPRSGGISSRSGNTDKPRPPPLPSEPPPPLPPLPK
Chain of CDK6/Cyclin D3 (Q00534 whole entry): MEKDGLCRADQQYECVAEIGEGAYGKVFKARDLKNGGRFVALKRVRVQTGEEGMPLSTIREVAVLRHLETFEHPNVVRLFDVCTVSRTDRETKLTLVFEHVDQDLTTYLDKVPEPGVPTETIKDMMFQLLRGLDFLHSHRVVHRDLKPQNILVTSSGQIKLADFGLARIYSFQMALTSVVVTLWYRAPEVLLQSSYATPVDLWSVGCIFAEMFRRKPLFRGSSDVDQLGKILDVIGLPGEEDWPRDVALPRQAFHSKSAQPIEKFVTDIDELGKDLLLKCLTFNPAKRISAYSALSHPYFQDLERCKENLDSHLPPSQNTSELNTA
Chain of CDK6/Cyclin D3 (P30281 whole entry partner): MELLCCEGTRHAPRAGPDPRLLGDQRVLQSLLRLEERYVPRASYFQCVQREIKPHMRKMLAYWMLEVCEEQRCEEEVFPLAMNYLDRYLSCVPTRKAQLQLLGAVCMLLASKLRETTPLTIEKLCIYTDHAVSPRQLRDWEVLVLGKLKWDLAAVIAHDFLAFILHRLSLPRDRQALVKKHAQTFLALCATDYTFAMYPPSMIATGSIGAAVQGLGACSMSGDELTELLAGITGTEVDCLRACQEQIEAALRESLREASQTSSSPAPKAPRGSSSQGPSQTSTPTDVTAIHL
Chain of CDK7/Cyclin H (P50613 whole entry): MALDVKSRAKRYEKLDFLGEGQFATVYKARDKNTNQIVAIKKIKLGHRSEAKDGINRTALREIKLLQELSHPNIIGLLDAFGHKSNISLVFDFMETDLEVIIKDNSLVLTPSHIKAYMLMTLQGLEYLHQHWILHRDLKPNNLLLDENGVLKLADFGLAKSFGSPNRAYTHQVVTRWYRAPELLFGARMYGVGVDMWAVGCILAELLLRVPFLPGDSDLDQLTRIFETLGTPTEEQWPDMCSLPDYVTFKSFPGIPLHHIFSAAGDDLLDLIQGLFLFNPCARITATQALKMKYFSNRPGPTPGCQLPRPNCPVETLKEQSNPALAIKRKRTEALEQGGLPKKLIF
Chain of CDK7/Cyclin H (P51946 whole entry partner): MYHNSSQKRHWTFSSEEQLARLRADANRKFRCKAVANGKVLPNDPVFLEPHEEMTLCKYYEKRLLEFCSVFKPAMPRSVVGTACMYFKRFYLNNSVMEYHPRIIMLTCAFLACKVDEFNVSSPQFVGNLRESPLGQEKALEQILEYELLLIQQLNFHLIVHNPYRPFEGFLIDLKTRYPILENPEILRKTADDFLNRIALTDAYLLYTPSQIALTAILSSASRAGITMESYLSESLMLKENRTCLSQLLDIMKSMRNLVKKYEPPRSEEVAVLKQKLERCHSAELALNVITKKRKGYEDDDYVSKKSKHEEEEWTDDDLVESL
Chain of CDK7/Cyclin H (P51948 whole entry partner): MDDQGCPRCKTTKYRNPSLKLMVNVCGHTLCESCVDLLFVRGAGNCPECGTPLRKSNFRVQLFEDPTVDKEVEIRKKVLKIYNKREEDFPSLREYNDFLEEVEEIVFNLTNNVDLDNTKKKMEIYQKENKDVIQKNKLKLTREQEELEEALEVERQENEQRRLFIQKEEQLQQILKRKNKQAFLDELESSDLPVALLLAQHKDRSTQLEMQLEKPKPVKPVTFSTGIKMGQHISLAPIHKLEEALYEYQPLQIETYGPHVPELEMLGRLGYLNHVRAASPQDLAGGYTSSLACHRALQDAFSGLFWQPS
Chain of CDK4/Cyclin D1 (P11802 whole entry): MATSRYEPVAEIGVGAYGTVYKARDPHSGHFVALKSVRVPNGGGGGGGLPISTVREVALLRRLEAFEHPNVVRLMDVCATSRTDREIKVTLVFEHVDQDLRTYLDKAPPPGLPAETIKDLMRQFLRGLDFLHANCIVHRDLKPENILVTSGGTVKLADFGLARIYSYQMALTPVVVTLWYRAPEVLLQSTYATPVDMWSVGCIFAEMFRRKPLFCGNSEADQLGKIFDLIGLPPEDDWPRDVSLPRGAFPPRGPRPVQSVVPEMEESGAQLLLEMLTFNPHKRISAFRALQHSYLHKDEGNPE
Chain of CDK4/Cyclin D1 (P24385 whole entry partner): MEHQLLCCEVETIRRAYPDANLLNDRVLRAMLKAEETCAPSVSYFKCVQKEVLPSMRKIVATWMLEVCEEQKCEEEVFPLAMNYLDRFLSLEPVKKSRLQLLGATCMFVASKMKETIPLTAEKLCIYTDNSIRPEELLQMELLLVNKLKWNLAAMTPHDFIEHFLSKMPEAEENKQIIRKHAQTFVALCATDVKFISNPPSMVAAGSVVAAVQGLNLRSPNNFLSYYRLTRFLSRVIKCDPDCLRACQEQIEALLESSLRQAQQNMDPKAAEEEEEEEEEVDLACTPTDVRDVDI
Chain of CDK1/Cyclin B1 (P06493 whole entry): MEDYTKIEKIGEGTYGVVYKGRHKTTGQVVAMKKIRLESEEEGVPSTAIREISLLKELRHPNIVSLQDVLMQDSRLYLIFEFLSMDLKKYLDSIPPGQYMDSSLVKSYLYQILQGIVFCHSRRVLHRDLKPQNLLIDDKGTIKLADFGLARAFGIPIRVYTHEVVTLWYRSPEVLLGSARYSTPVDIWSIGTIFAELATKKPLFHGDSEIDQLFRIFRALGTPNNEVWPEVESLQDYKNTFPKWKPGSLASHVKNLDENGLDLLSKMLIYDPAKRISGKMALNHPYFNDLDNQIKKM
Chain of CDK1/Cyclin B1 (P14635 whole entry partner): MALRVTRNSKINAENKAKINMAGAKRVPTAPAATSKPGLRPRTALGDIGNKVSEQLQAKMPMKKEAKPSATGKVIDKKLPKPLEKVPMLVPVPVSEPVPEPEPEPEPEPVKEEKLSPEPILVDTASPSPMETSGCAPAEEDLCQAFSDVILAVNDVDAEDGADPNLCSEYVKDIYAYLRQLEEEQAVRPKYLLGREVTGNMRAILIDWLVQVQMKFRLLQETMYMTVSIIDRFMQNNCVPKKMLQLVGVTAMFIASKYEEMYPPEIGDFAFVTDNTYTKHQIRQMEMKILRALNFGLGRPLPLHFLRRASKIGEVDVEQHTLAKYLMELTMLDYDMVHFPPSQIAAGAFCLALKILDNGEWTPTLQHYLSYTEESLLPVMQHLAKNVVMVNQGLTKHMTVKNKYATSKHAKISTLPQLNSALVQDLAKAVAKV
Chain of CDK5/p35 (Q00535 whole entry): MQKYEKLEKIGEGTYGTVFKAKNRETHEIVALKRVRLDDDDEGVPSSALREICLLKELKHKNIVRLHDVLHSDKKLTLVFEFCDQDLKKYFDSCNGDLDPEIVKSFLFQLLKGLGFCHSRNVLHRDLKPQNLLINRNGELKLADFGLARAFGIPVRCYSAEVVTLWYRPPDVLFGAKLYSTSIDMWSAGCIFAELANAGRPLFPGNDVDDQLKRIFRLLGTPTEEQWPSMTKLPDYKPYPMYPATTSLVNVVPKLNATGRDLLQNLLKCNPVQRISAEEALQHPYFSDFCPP
Chain of CDK5/p35 (Q15078 whole entry partner): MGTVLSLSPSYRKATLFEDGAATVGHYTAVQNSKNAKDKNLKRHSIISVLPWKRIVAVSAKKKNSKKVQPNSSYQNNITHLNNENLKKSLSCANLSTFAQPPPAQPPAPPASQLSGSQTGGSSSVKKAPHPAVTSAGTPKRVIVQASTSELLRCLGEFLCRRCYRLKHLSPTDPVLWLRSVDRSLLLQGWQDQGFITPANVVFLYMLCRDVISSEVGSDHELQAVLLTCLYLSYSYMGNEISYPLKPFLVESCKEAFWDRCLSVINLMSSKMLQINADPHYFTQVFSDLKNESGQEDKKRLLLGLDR

With `O=C1NCC2(CCCCC2)n2c1cc1cnc(N[C@H]3CCCN[C@@H]3c3ccccc3)nc12` [Compound 10, 2′-(((2R,3S)-2-phenylpiperidin-3-yl)amino)-7′,8′-dihydro-6′H-spiro[cyclohexane-1,9′-pyrazino[1′,2′:1,5]pyrrolo[2,3-d]pyrimidin]-6′-one], the IC50 (commonly the midpoint of a concentration-inhibition curve) at CDK1/Cyclin B1 is 8800 nM; on CDK5/p35, 9700 nM; at CDK7/Cyclin H, 1800 nM; at CDK2/Cyclin E, 5700 nM; on CDK9/Cyclin T it was 80 nM; on CDK5/p25, 11000 nM. Further, the IC50 against CDK6/Cyclin D3 is 1200 nM; at CDK4/Cyclin D1, 36 nM; on CDK2/Cyclin A, 3600 nM; at CDK3/Cyclin E it was 16000 nM.

Regarding `O=C1NCC2(CCCCC2)n2c1cc1cnc(NC(=O)[C@@H]3CCCNC3)nc12` [Compound 11, (R)-N-(6′-oxo-7′,8′-dihydro-6′H-spiro[cyclohexane-1,9′-pyrazino[1′,2′:1,5]pyrrolo[2,3-d]pyrimidin]-2′-yl)piperidine-3-carboxamide], the IC50 was 4400 nM against CDK1/Cyclin B1; 30000 nM on CDK5/p35; 13000 nM at CDK7/Cyclin H; 13000 nM against CDK2/Cyclin E; 5.5 nM against CDK9/Cyclin T; 35000 nM against CDK5/p25. In addition, the IC50 stood at 28000 nM at CDK6/Cyclin D3, 2900 nM at CDK4/Cyclin D1, 3100 nM on CDK2/Cyclin A and 7200 nM against CDK3/Cyclin E.

As to `O=C1NCC2(CCCCC2)n2c1cc1cnc(N[C@H]3CC[C@H](NC4CCOCC4)CC3)nc12` [Compound 16, 2′-(((1r,4r)-4-((tetrahydro-2H-pyran-4-yl)amino)cyclohexyl)amino)-7′,8′-dihydro-6′H-spiro[cyclohexane-1,9′-pyrazino[1′,2′:1,5]pyrrolo[2,3-d]pyrimidin]-6′-one], the IC50 against CDK1/Cyclin B1 is 91 nM; against CDK5/p35, 470 nM; on CDK7/Cyclin H, 170 nM; against CDK2/Cyclin E, 190 nM; against CDK9/Cyclin T, 2.7 nM; against CDK5/p25, 480 nM. Moreover, the IC50 at CDK6/Cyclin D3 was 72 nM; against CDK4/Cyclin D1, 13 nM; at CDK2/Cyclin A, 110 nM; against CDK3/Cyclin E, 240 nM.

As to `O=C1NCC2(CCCCC2)n2c1cc1cnc(N[C@H]3CC[C@H](Nc4ncc(F)cn4)CC3)nc12` [Compound 19, 2′-(((1,4-trans)-4-((5-fluoropyrimidin-2-yl)amino)cyclohexyl)-12-azaneyl)-7′,8′-dihydro-6′H-spiro[cyclohexane-1,9′-pyrazino[1′,2′:1,5]pyrrolo[2,3-d]pyrimidin]-6′-one], the half-inhibitory concentration (IC50) at CDK1/Cyclin B1 was 96 nM; on CDK5/p35, 120 nM; on CDK7/Cyclin H it was 740 nM; on CDK2/Cyclin E, 110 nM; at CDK9/Cyclin T, 2.1 nM; on CDK5/p25, 120 nM. Further, the 50% inhibitory concentration (IC50) against CDK6/Cyclin D3 worked out at 75 nM; against CDK4/Cyclin D1, 8.6 nM; at CDK2/Cyclin A it was 71 nM; on CDK3/Cyclin E it was 220 nM.

On to `O=C1NCC2(CCCCC2)n2c1cc1cnc(N[C@H]3CC[C@H](NCc4ccccc4F)CC3)nc12` [Compound 20, 2′-(((1,4-trans)-4-((2-fluorobenzyl)amino)cyclohexyl)amino)-7′,8′-dihydro-6′H-spiro[cyclohexane-1,9′-pyrazino[1′,2′:1,5]pyrrolo[2,3-d]pyrimidin]-6′-one], for which the half-inhibitory concentration (IC50) against CDK1/Cyclin B1 worked out at 360 nM; against CDK5/p35, 370 nM; against CDK7/Cyclin H, 230 nM; at CDK2/Cyclin E, 310 nM; against CDK9/Cyclin T it was 4.7 nM; against CDK5/p25, 370 nM. Moreover, the half-inhibitory concentration (IC50) against CDK6/Cyclin D3 was determined as 78 nM; at CDK4/Cyclin D1, 14 nM; at CDK2/Cyclin A, 180 nM; at CDK3/Cyclin E, 400 nM.
